# Patent US20100184815A1 (priority 2008, published 2010)
# Target: T1, Full Length hPPARβ/δ (Homo sapiens, UniProt Q03181)
# T1 construct: Full Length; expressed in transfected cells; host or cells: Cos cells
# T1 sequence (Q03181 1-441): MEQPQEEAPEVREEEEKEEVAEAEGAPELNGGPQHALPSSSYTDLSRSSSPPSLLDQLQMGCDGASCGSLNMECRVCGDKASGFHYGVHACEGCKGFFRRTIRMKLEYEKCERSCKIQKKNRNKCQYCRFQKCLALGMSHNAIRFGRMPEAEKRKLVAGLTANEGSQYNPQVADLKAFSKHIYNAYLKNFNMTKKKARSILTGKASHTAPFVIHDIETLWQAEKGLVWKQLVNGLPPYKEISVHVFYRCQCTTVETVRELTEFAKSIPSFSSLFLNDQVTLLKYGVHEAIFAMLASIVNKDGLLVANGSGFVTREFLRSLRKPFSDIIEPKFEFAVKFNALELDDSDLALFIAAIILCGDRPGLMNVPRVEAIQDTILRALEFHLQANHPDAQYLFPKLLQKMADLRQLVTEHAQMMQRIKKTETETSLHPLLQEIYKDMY
# Assay: Full length hPPARβ/δ transfection assay
# Assay type: cell-based
# Settings: full length receptor; scale 1-5; read-out: Full Length hPPAR β/δ EC50 (scaled number)
# Protocol: Transient transfection assays. Cos cells were seeded in 60-mm dishes at a density of 5.5×10^5 cells/dish in Dulbecco's modified Eagle's medium (DMEM) supplemented with 10% fetal calf serum (FCS) and incubated at 37° C. for 24 hours before transfection. Cells were transfected in Opti-MEM (Gibco; Invitrogen, Carlsbad, Calif.) without FCS for 3 hours at 37° C., using polyethylenimine, with reporter and expression plasmids. The plasmid pBluescript (Stratagene, La Jolla, Calif.) was used as carrier DNA to set the final amount of DNA to 5.5 μg/dish. The pCMV-b-galactosidase expression plasmid was cotransfected as a control for transfection efficiency. Transfection was stopped by the addition of DMEM supplemented with 10% FCS, and cells were then incubated at 37° C. After 16 hours, cells were trypsinized and seeded in 96-well plates at the density of 2×10^4 cells/well and incubated for 6 hours in 10% FCS-containing DMEM. Cells were then incubated for 24 hours in DMEM containing 0.2% FCS and increasing concentrations of the compound tested or vehicle (DMSO). At the end of the experiment, cells were washed once with ice-cold PBS, lysed and the luciferase and b-galactosidase assays were performed in a luminometer and spectrophotomer. Transfection efficiencies were normalized with the b-galactosidase activity assay. Half-maximal effective concentration (EC50) was estimated using Prism software (GraphPad). All transfection experiments were performed at least three times.
# In the following tables, proprietary compound EC50 values for hPPAR α, β, δ and γ are shown. The EC50 value is the concentration of a drug that induces a response halfway between the baseline and maximum, and is commonly used as a measure of drug potency. EC50 values are reported on a scale of 1 through 5, wherein the value scale is defined for each receptor as follows: […]
row,EC50 [µM],Structure (SMILES)
1,0.201 to 0.999,"CCCCCCn1c(COC(=O)c2ccc(SC(C)(C)C(=O)O)cc2)nn(Cc2ccc(C)cc2)c1=O [Compound 160, 2-(4-(((4-hexyl-1-(4-methylbenzyl)-5-oxo-4,5-dihydro-1H-1,2,4-triazol-3-yl)methoxy)carbonyl)phenylthio)-2-methylpropanoic acid]"
2,0.201 to 0.999,"CCCCCCCCn1c(COC(=O)c2ccc(SC(C)(C)C(=O)O)cc2)nn(Cc2ccc(C)cc2)c1=O [Compound 161, 2-methyl-2-(4-(((1-(4-methylbenzyl)-4-octyl-5-oxo-4,5-dihydro-1H-1,2,4-triazol-3-yl)methoxy)carbonyl)phenylthio)propanoic acid]"
3,0.051 to 0.2,"CCCCCCCn1c(COC(=O)c2ccc(SC(C)(C)C(=O)O)cc2)nn(Cc2ccc(C)cc2)c1=O [Compound 191, 2-(4-(((4-heptyl-1-(4-methylbenzyl)-5-oxo-4,5-dihydro-1H-1,2,4-triazol-3-yl)methoxy)carbonyl)phenylthio)-2-methylpropanoic acid]"
